Results taken from ChEMBL document CHEMBL4706637, “Design, synthesis and biological evaluation of thioether-containing lenalidomide and pomalidomide derivatives with anti-multiple myeloma activity” (Eur J Med Chem, 2021).
The source made the active and inactive calls. No cut-off for these calls is given here.

Experiments:
[1] = molecular target: Zinc finger protein Aiolos (Homo sapiens) (UniProt Q9UKT9); assay: Induction of IKZF3 degradation in human MM1.S cells assessed as reduction in IKZF3 level at 0.02 to 2 uM incubated for 12 hrs by immunoblot analysis; format: cell-based; details: dose 0.02-2 µM
[2] = molecular target: DNA-binding protein Ikaros (Homo sapiens) (UniProt Q13422); assay: Induction of IKZF1 degradation in human MM1.S cells assessed as reduction in IKZF1 level at 0.02 to 2 uM incubated for 12 hrs by immunoblot analysis; format: cell-based; details: dose 0.02-2 µM
[3] = Intrinsic clearance in human liver microsomes measured per gm of protein; format: ADME, Microsome
MM1.S [4] = assay: Antiproliferative activity against human MM1.S cells assessed as reduction in cell growth measured after 7 days culturing by CellTiter 96 Aqueous non-radioactive cell proliferation assay; format: functional, cell-based; details: 168 h
[5] = Half-life in human liver microsomes; format: ADME, Microsome
[6] = Metabolic stability in human liver microsomes assessed as parent compound remaining; format: ADME, Microsome
[7] = Intrinsic clearance in human; format: ADME
MM1.S [8] = assay: Antitumor activity against human MM1.S cells xenografted in CB17-SCID mouse assessed as reduction in tumor weight at 60 mg/kg, po qd for 14 days and measured after 14 days; format: functional; details: 336 h, time 14 day
[9] = Hepatic intrinsic clearance in human; format: ADME
[10] = molecular target: DNA-binding protein Ikaros (Homo sapiens) (UniProt Q13422); assay: Induction of IKZF1 degradation in human MM1.S cells assessed as reduction in IKZF1 level incubated for 12 hrs by immunoblot analysis; format: cell-based; details: dose 0.02-2 µM
[11] = molecular target: Zinc finger protein Aiolos (Homo sapiens) (UniProt Q9UKT9); assay: Induction of IKZF3 degradation in human MM1.S cells assessed as reduction in IKZF3 level incubated for 12 hrs by immunoblot analysis; format: cell-based; details: dose 0.02-2 µM

Sequence of Zinc finger protein Aiolos (Homo sapiens) (Q9UKT9 whole entry): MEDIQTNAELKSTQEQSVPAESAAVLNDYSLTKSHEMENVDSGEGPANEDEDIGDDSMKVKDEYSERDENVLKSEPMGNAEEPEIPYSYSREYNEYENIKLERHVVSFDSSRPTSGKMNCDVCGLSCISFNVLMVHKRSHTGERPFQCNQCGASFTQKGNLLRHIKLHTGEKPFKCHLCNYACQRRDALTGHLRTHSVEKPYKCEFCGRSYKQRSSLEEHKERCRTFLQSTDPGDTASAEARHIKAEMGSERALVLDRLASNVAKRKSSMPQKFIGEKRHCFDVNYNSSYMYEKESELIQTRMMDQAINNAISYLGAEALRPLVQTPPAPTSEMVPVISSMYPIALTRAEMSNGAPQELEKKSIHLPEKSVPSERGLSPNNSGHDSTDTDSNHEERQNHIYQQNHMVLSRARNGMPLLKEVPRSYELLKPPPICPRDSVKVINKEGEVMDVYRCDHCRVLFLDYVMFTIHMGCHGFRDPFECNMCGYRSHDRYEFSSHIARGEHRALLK
Sequence of DNA-binding protein Ikaros (Homo sapiens) (Q13422 whole entry): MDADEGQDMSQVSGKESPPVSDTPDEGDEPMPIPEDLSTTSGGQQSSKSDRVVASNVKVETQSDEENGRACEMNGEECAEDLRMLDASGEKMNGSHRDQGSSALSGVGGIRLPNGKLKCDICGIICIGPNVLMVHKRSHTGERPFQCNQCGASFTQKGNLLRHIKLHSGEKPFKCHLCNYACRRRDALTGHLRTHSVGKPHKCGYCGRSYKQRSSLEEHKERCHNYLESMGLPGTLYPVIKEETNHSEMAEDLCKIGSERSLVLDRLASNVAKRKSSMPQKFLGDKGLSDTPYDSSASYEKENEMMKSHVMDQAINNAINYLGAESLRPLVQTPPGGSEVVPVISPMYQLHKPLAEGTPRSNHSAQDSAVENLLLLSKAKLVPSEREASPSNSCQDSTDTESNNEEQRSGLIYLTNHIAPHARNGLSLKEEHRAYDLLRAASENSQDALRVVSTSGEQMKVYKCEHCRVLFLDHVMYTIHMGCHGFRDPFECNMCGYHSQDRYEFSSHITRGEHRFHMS

SMILES: O=C1CCC(N2Cc3c(Sc4ccc(F)cc4)cccc3C2=O)C(=O)N1 (stereo unspecified)
- Activity [1]: Active
- Activity [2]: Active

SMILES: Nc1cccc2c1CN(C1CCC(=O)NC1=O)C2=O (stereo unspecified) [LENALIDOMIDE]
- CLH [3]: 1.8 mL/min/g
- IC50 (MM1.S [4]): 81 nM
- half-life [5]: 19.3 h
- Stabilty [6]: 91.5%
- CL [7]: 138.7 mL/min
- inhibition in vivo at 60 mg/kg/day (MM1.S [8]): 62.6%
- CLH [9]: 127 mL/min

SMILES: COc1ccccc1Sc1cccc2c1CN(C1CCC(=O)NC1=O)C2=O (stereo unspecified)
- Activity [10]: Dose-dependent effect
- Activity [11]: Dose-dependent effect
